Reference: patent publication US20190374618A1, “FIBRONECTIN OR ILK INHIBITORS FOR USE IN THE TREATMENT OF LEUKEMIA” (Chemotherapeutisches Forschungsinstitut Georg-Speyer-Haus, priority 2016, published 2019)

What was measured:
[1] = patients, cardiovascular toxicity reference; cited from earlier work
BCR-ABL1^T315I+ CML [2] = assay: intrafemoral co-injection of fibronectin with leukemia-initiating cells, retroviral transduction/transplantation model of CML; assay type: in vivo, mouse (Balb/c)
Description: FIG. 7: White blood cell counts per μl in peripheral blood (a) and survival (b) of mice intravenously transplanted (no FN) or intrafemorally co-transplanted with BCR-ABL1 (gray colors)- or BCR-ABL1T315I (blue colors)-transduced bone marrow and vehicle or FN.
(§1) The inventors have shown by immunofluorescence (FIG. 5) and immunohistochemistry of bone sections of mice transplanted with empty vector-transduced cells, or mice with BCR-ABL1^WT+ or BCR-ABL1^T315I+ CML-like myeloproliferative neoplasia (FIG. 6), that BCR-ABL1^T315I+ cells deposit less fibronectin in their environment than BCR-ABL1^WT+ cells, which is likely also reflected by their differences in their interaction with the BMM.
(§2) Our retroviral stock was generated and bone marrow transplantation experiments were performed as described earlier (9, 14, 16). In general, we injected between 2.25 and 2.5×10^5 transduced cells into female irradiated (750 cGy) Balb/c recipient mice. The T315I point mutation in BCR-ABL1 was introduced by site-directed mutagenesis in the open reading frame of the MSCV IRES GFP vector.
(§3) Therapeutic application of fibronectin was performed as follows: intravenous application of 200 μg bovine fibronectin (in HBSS) on days 9, 10 and 12 post transplantation; for vehicle control treatments, 200 μl of HBSS (equal volume to fibronectin dose) was administered. […]

BCR-ABL1^T315I+ CML [3] = assay: intravenous fibronectin on days 9, 10 and 12 post transplantation, retroviral transduction/transplantation model of CML; assay type: in vivo, mouse (Balb/c); conditions: three intravenous injections on days 9, 10 and 12 post transplantation, BCR-ABL1T315I+ CML vs vehicle-treated mice, FIG. 8
Description: FIG. 8: Kaplan-Meier survival curve of mice intravenously transplanted with BCR-ABL1 (gray colours) or BCR-ABL1T315I (blue colours)-transduced bone marrow treated with vehicle or FN on days 9, 10 and 12 after transplantation.
as §1, §2, §3

LSC in CML = conditions: but not AML; cited from earlier work

In the case of `Cc1nc(Nc2ncc(C(=O)Nc3c(C)cccc3Cl)s2)cc(N2CCN(CCO)CC2)n1` [dasatinib], the adverse events [1] is given as “frequently associated with severe adverse events”.

For `Cc1cn(-c2cc(NC(=O)c3ccc(C)c(Nc4nccc(-c5cccnc5)n4)c3)cc(C(F)(F)F)c2)cn1` [nilotinib], the adverse events [1] is given as “frequently associated with severe adverse events”.

In the case of `Cc1ccc(C(=O)Nc2ccc(CN3CCN(C)CC3)c(C(F)(F)F)c2)cc1C#Cc1cnc2cccnn12` [ponatinib], the adverse events [1] is listed as “frequently associated with severe adverse events”.

With “fibronectin: Murine fibronectin (Abcam ab92784) for intrafemoral injection; lyophilized bovine fibronectin (Thermo Fisher 33010018) for intravenous application” the “tumor burden (white blood cell counts per μl in peripheral blood)” value (BCR-ABL1^T315I+ CML [2]; intrafemoral co-injection of fibronectin with BCR-ABL1WT+ or BCR-ABL1T315I+ leukemia-initiating cells vs vehicle, FIG. 7a) was “significantly decreased the tumor burden”, the survival (BCR-ABL1^T315I+ CML [2]; recipients of BCR-ABL1T315I-transduced bone marrow, intrafemoral co-injection vs vehicle, FIG. 7b) was “prolonged survival” and the survival (BCR-ABL1^T315I+ CML [3]) was “significant prolongation of survival”.

B1: parathyroid hormone: the most potent regulator of bone turnover (protein, UniProt P01270 32-115, looked up)
Parathyroid hormone: SVSEIQLMHNLGKHLNSMERVEWLRKKLQDVHNFVALGAPLAPRDAGSQRPRKKEDNVLVESHEKSLGEADKADVNVLTKAKSQ
modifications: Parathyroid hormone
In the case of B1, the LSC number (LSC in CML) is listed as “reduction of LSC in CML”.
